Measurements: patent US12268673B2, “Anhydrous compositions of mTOR inhibitors and methods of use” (PALVELLA THERAPEUTICS, INC., priority 2017, dated 2025)
“Also recorded” adds a separate entry of the source.

Assay: Ex vivo skin permeation experiment
Assay type: in vitro ADME
Conditions: human donor skin
Description: Human donor skin was placed between upper and lower compartments. The lower compartment was filled with receiver fluid. Various rapamycin compositions were applied on the surface of the skin facing the upper compartment (11 formulations (i.e., O3, NA21, NA22, NA21, NA17, TD201, NA19, NA25, AG14, NA26 and NA24), n=6 replicates, dosage 10 mg/cm^2) and left for 24 hrs. A positive displacement pipette was used to apply the formulation (˜10 mg/cm2) to the plunger of a 1 mL syringe. The formulation (10+/−0.5 mg) was applied to the skin surface and spread over the diffusion area using the plunger. Prior to and after the application the weight of the plunger was recorded, from which the dose per cell was calculated.
Following the time period, the excess rapamycin compositions were wiped from the skin surface and the skin layers were separated into stratum corneum, epidermis, and dermis. The Stratum corneum was removed from the human skin using a tape stripping procedure. The epidermis was separated from the dermis by dry heating at 60° C. for 2 min. Rapamycin was extracted from each layer by 90:10 v/v ethanol: water solvent mixture, and quantified. The receiver fluid in the lower compartment was also analyzed for the presence of rapamycin.

rapamycin in the receiver fluid (10 mg/cm^2, any time point across the experimental period (24 hrs)): not detected
SMILES: CO[C@H]1C[C@@H]2CC[C@@H](C)[C@@](O)(O2)C(=O)C(=O)N2CCCC[C@H]2C(=O)O[C@H]([C@H](C)C[C@@H]2CC[C@@H](O)[C@H](OC)C2)CC(=O)[C@H](C)/C=C(\C)[C@@H](O)[C@@H](OC)C(=O)[C@H](C)C[C@H](C)/C=C/C=C/C=C/1C [rapamycin]
distribution of rapamycin over skin surface, stratum corneum, epidermis and dermis (10 mg/cm^2, 24 hrs): greatest amount of rapamycin was found on the surface of the skin; also recorded: more of the drug residing in the epidermis than either the stratum corneum or dermal layer; also recorded: increase in the amount of rapamycin quantified in both the epidermis and dermis
